Target: USP7 (Homo sapiens, UniProt Q93009)
Test: USP7 inhibitory potency (IC50)
Assay type: biochemical
Description: Activity for compounds described herein is provided in Table 2, wherein potency levels are provided as follows: (Potency: USP7 IC50: A<0.01 μM; B=0.01-0.1 μM; C=>0.1 μM.

Sequence of USP7 (Q93009 whole entry): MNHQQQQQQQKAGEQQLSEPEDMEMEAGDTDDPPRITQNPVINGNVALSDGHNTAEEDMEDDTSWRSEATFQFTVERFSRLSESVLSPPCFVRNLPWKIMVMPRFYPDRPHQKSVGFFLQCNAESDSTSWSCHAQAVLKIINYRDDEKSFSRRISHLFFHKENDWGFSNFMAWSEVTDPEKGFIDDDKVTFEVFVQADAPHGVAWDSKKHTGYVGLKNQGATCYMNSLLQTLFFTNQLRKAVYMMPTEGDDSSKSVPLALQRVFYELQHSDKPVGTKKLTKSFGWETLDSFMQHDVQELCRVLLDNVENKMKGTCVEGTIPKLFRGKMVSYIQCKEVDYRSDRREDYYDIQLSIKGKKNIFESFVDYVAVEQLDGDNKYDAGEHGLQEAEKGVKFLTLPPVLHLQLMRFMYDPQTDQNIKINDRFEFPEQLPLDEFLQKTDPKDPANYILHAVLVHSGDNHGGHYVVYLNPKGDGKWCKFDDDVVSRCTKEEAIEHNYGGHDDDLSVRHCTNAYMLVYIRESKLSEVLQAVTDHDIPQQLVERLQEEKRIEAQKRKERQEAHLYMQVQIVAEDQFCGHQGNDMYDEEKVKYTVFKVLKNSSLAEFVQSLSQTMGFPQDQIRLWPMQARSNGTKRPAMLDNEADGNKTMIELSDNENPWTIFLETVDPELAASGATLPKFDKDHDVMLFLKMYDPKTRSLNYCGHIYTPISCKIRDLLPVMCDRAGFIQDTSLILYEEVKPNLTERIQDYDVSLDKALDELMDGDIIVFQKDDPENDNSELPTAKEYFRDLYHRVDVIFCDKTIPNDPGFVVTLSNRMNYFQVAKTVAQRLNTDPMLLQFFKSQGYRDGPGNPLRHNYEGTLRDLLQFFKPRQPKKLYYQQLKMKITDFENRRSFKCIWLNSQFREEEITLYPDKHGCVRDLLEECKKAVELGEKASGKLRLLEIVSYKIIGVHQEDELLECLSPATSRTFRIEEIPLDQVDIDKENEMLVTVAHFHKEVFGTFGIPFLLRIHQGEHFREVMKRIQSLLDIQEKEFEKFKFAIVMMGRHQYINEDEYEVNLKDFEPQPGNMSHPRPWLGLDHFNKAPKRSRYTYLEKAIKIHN

IC50 [nM] | SMILES
10 to 100 | Cc1cc(Cl)cc(-c2ncnc3cc(CN4C(=O)C5C(C4=O)C5(C)C)sc23)c1CN1CCN(C)C[C@@H]1C (stereo partly drawn) [Example 53, 3-((4-(5-chloro-2-(((S)-2,4-dimethylpiperazin-1-yl)methyl)-3-methylphenyl)thieno[3,2-d]pyrimidin-6-yl)methyl)-6,6-dimethyl-3-azabicyclo[3.1.0]hexane-2,4-dione]
< 10 | Cc1cc(Cl)cc(-c2ncnc3cc(CN4C(=O)[C@@H]5CCCN5C4=O)sc23)c1CN1[C@@H](C)CNC[C@@H]1C [Example 88, (S)-2-((4-(5-chloro-2-(((2S,6S)-2,6-dimethylpiperazin-1-yl)methyl)-3-methylphenyl)thieno[3,2-d]pyrimidin-6-yl)methyl)tetrahydro-1H-pyrrolo[1,2-c]imidazole-1,3(2H)-dione]
< 10 | Cc1cc(Cl)cc(-c2ccnc3cc(CN4C(=O)C5CC5C4=O)sc23)c1C[C@H]1OCCN[C@@H]1C (stereo partly drawn) [Example 104, 3-((7-(5-chloro-3-methyl-2-(((2R,3R)-3-methylmorpholin-2-yl)methyl)phenyl)thieno[3,2-b]pyridin-2-yl)methyl)-3-azabicyclo[3.1.0]hexane-2,4-dione]
< 10 | Cc1cc(Cl)cc(-c2ccnc3cc(CN4C(=O)CCC4=O)sc23)c1CN1[C@@H](C)CNC[C@@H]1C [Example 14, 1-((7-(5-chloro-2-(((2S,6S)-2,6-dimethylpiperazin-1-yl)methyl)-3-methylphenyl)thieno[3,2-b]pyridin-2-yl)methyl)pyrrolidine-2,5-dione]
< 10 | Cc1cc(Cl)cc(-c2ccnc3cc(CN4C(=O)CCC4=O)sc23)c1CN1CCNC(C)C1 (stereo not drawn) [Example 18, 1-((7-(5-chloro-3-methyl-2-((3-methylpiperazin-1-yl)methyl)phenyl)thieno[3,2-b]pyridin-2-yl)methyl)pyrrolidine-2,5-dione]
< 10 | C[C@@H]1CN(Cc2c(Cl)cc(Cl)cc2-c2ncnc3cc(CN4C(=O)C5CC5C4=O)sc23)[C@@H](C)CN1 (stereo partly drawn) [Example 75, 3-((4-(3,5-dichloro-2-(((2S,5R)-2,5-dimethylpiperazin-1-yl)methyl)phenyl)thieno[3,2-d]pyrimidin-6-yl)methyl)-3-azabicyclo[3.1.0]hexane-2,4-dione]
10 to 100 | Cc1cc(Cl)cc(-c2ccnc3c(F)c(CN4C(=O)C5C(C4=O)C5(C)C)sc23)c1C[C@@H]1CNCCO1 (stereo partly drawn) [Example 146, 3-((7-(5-chloro-3-methyl-2-(((R)-morpholin-2-yl)methyl)phenyl)-3-fluorothieno[3,2-b]pyridin-2-yl)methyl)-6,6-dimethyl-3-azabicyclo[3.1.0]hexane-2,4-dione]
10 to 100 | Cc1cc(Cl)cc(-c2ccnc3cc(CN4C(=O)CCC4=O)sc23)c1CN1CCNC[C@H]1C [Example 7, (R)-1-((7-(5-chloro-3-methyl-2-((2-methylpiperazin-1-yl)methyl)phenyl)thieno[3,2-b]pyridin-2-yl)methyl)pyrrolidine-2,5-dione]
> 100 | Cc1cc(Cl)cc(-c2ccnc3cc(CN4C(=O)C5CC5C4=O)sc23)c1CC1COCCN1 (stereo not drawn) [Example 115, 3-((7-(5-chloro-3-methyl-2-(morpholin-3-ylmethyl)phenyl)thieno[3,2-b]pyridin-2-yl)methyl)-3-azabicyclo[3.1.0]hexane-2,4-dione]
< 10 | CCN1CCN(Cc2c(C)cc(Cl)cc2-c2ncnc3cc(CN4C(=O)C5C(C4=O)C5(C)C)sc23)[C@@H](C)C1 (stereo partly drawn) [Example 54, 3-((4-(5-chloro-2-(((S)-4-ethyl-2-methylpiperazin-1-yl)methyl)-3-methylphenyl)thieno[3,2-d]pyrimidin-6-yl)methyl)-6,6-dimethyl-3-azabicyclo[3.1.0]hexane-2,4-dione]
< 10 | Cc1cc(Cl)cc(-c2ncnc3cc(CN4C(=O)C5C(C4=O)C5(C)C)sc23)c1CN1C[C@@H](C)NC[C@@H]1C (stereo partly drawn) [Example 67, 3-((4-(5-chloro-2-(((2S,5R)-2,5-dimethylpiperazin-1-yl)methyl)-3-methylphenyl)thieno[3,2-d]pyrimidin-6-yl)methyl)-6,6-dimethyl-3-azabicyclo[3.1.0]hexane-2,4-dione]
< 10 | Cc1cc(Cl)cc(-c2ncnc3cc(CN4C(=O)CN(C)C4=O)sc23)c1CC1CNCC(C)(C)O1 (stereo not drawn) [Example 183, 3-((4-(5-chloro-2-((6,6-dimethylmorpholin-2-yl)methyl)-3-methylphenyl)thieno[3,2-d]pyrimidin-6-yl)methyl)-1-methylimidazolidine-2,4-dione]
> 100 | Cc1ccc(CN2CCNC[C@@H]2C)c(-c2ncnc3cc(CN4C(=O)C5CC5C4=O)sc23)c1 (stereo partly drawn) [Example 62, 3-((4-(5-methyl-2-(((S)-2-methylpiperazin-1-yl)methyl)phenyl)thieno[3,2-d]pyrimidin-6-yl)methyl)-3-azabicyclo[3.1.0]hexane-2,4-dione]
10 to 100 | Cc1cc(Cl)cc(-c2ncnc3cc(CN4C(=O)CCC4C)sc23)c1C[C@@H]1CNCC(C)(C)O1 (stereo partly drawn) [Example 241, 1-((4-(5-chloro-2-(((R)-6,6-dimethylmorpholin-2-yl)methyl)-3-methylphenyl)thieno[3,2-d]pyrimidin-6-yl)methyl)-5-methylpyrrolidin-2-one]
10 to 100 | Cc1cc(C(F)(F)F)cc(-c2ncnc3cc(CN4C(=O)C5C(C4=O)C5(C)C)sc23)c1CN1CCNC[C@@H]1C (stereo partly drawn) [Example 59, 6,6-dimethyl-3-((4-(3-methyl-2-(((S)-2-methylpiperazin-1-yl)methyl)-5-(trifluoromethyl)phenyl)thieno[3,2-d]pyrimidin-6-yl)methyl)-3-azabicyclo[3.1.0]hexane-2,4-dione]
< 10 | Cc1cc(Cl)cc(-c2ncnc3cc(CN4C(=O)CCNC4=O)sc23)c1C[C@@H]1CNCC(C)(C)O1 [Example 270, (R)-3-((4-(5-chloro-2-((6,6-dimethylmorpholin-2-yl)methyl)-3-methylphenyl)thieno[3,2-d]pyrimidin-6-yl)methyl)dihydropyrimidine-2,4(1H,3H)-dione]
10 to 100 | Cc1cc(Cl)cc(-c2ccnc3cc(CN4C(=O)CCC4C(F)(F)F)sc23)c1CC1CNCCO1 (stereo not drawn) [Example 114, 1-((7-(5-chloro-3-methyl-2-(morpholin-2-ylmethyl)phenyl)thieno[3,2-b]pyridin-2-yl)methyl)-5-(trifluoromethyl)pyrrolidin-2-one]
< 10 | Cc1cc(Cl)cc(-c2ccnc3cc(CN4C(=O)C5CCC5C4=O)sc23)c1CC1CNCCO1 (stereo not drawn) [Example 110, 3-((7-(5-chloro-3-methyl-2-(morpholin-2-ylmethyl)phenyl)thieno[3,2-b]pyridin-2-yl)methyl)-3-azabicyclo[3.2.0]heptane-2,4-dione]
< 10 | Cc1cc(Cl)cc(-c2ncnc3cc(CN4C(=O)CCN(CC(F)(F)F)C4=O)sc23)c1C[C@@H]1CNCC(C)(C)O1 [Example 236, (R)-3-((4-(5-chloro-2-((6,6-dimethylmorpholin-2-yl)methyl)-3-methylphenyl)thieno[3,2-d]pyrimidin-6-yl)methyl)-1-(2,2,2-trifluoroethyl)dihydropyrimidine-2,4(1H,3H)-dione]
< 10 | Cc1cc(Cl)cc(-c2ncnc3cc(CN4C(=O)C5C(C4=O)C5(C)C)sc23)c1CC1CNCCO1 (stereo not drawn) [Example 151, 3-((4-(5-chloro-3-methyl-2-(morpholin-2-ylmethyl)phenyl)thieno[3,2-d]pyrimidin-6-yl)methyl)-6,6-dimethyl-3-azabicyclo[3.1.0]hexane-2,4-dione]
< 10 | C[C@H]1CNC[C@H](C)N1Cc1c(Cl)cc(Cl)cc1-c1ccnc2cc(CN3C(=O)CCN(C)C3=O)sc12 [Example 49, 3-((7-(3,5-dichloro-2-(((2S,6S)-2,6-dimethylpiperazin-1-yl)methyl)phenyl)thieno[3,2-b]pyridin-2-yl)methyl)-1-methyldihydropyrimidine-2,4(1H,3H)-dione]
10 to 100 | Cc1cc(Cl)cc(-c2ncnc3cc(CN4CC(CO)CC4=O)sc23)c1C[C@@H]1CNCC(C)(C)O1 (stereo partly drawn) [Example 231, 1-((4-(5-chloro-2-(((R)-6,6-dimethylmorpholin-2-yl)methyl)-3-methylphenyl)thieno[3,2-d]pyrimidin-6-yl)methyl)-4-(hydroxymethyl)pyrrolidin-2-one]
< 10 | Cc1cc(Cl)cc(-c2ccnc3cc(CN4C(=O)CCC4=O)sc23)c1CN1CC2CC1CN2 (stereo not drawn) [Example 15, 1-((7-(2-((2,5-diazabicyclo[2.2.1]heptan-2-yl)methyl)-5-chloro-3-methylphenyl)thieno[3,2-b]pyridin-2-yl)methyl)pyrrolidine-2,5-dione]
10 to 100 | Cc1cc(Cl)cc(-c2ncnc3cc(CN4C(=O)C5C(C4=O)C5(C)C)sc23)c1C[C@@H]1CN(C(=O)C(F)(F)F)CCO1 (stereo partly drawn) [Example 201, 3-((4-(5-chloro-3-methyl-2-(((R)-4-(2,2,2-trifluoroacetyl)morpholin-2-yl)methyl)phenyl)thieno[3,2-d]pyrimidin-6-yl)methyl)-6,6-dimethyl-3-azabicyclo[3.1.0]hexane-2,4-dione]
< 10 | Cc1cc(Cl)cc(-c2ncnc3cc(C(C)N4C(=O)C5C(C4=O)C5(C)C)sc23)c1C[C@@H]1CNCCO1 (stereo partly drawn) [Example 209, 3-(1-(4-(5-chloro-3-methyl-2-(((R)-morpholin-2-yl)methyl)phenyl)thieno[3,2-d]pyrimidin-6-yl)ethyl)-6,6-dimethyl-3-azabicyclo[3.1.0]hexane-2,4-dione]
10 to 100 | Cc1cc(Cl)cc(-c2ncnc3cc(CN4C(=O)CN(CCCC(=O)O)C4=O)sc23)c1C[C@@H]1CNCCO1 [Example 264, (R)-4-(3-((4-(5-chloro-3-methyl-2-(morpholin-2-ylmethyl)phenyl)thieno[3,2-d]pyrimidin-6-yl)methyl)-2,4-dioxoimidazolidin-1-yl)butanoic acid]
< 10 | Cc1cc(Cl)cc(-c2ncnc3cc(CN4C(=O)C5CC5C4=O)sc23)c1C[C@@H]1CNCCO1 (stereo partly drawn) [Example 182, 3-((4-(5-chloro-3-methyl-2-(((R)-morpholin-2-yl)methyl)phenyl)thieno[3,2-d]pyrimidin-6-yl)methyl)-3-azabicyclo[3.1.0]hexane-2,4-dione]
